Laboratory results published in patent US9795625B2, “Uridine and uridine analogues for treatment of specific lung diseases, namely COPD and pulmonary fibrosis” (Universitaetsklinikum Freiburg, priority 2011, dated 2017).

Columns and labels:
[1] = test system: sephadex-induced acute lung inflammation; settings: sephadex-induced acute lung inflammation model; cited from earlier work
[2] = test system: murine model of chronic smoke exposure; assay: Chronic exposure to cigarette smoke (pulmonary emphysema), lung morphometry; format: in vivo, male C57BL/6 mice; settings: uridine 0.6 mg/kg oral gavage 45 min prior to smoke exposure vs non-uridine treated mice (FIG. 2)
Text: The methodology for chronic smoke exposure has been previously described (Cavarra E et al., Human SLPI inactivation after cigarette smoke exposure in a new in vivo model of pulmonary oxidative stress, Am J Physiol Lung Cell Mol Physiol. 2001 August; 281(2):L412-7 Cicko S et al., Purinergic receptor inhibition prevents the development of smoke-induced lung injury and emphysema, J Immunol. 2010 Jul. 1; 185(1):688-97)). Briefly, male C57BL/6 mice were exposed to either the smoke of 3 cigarettes per day (commercial Virginia filter cigarettes: 12 mg of tar and 0.9 mg of nicotine), 5 days per week or to room air (controls) for 4 or 7 months, respectively.
When indicated, animals received an oral treatment by gavage with Uridine (0.6 mg/kg) 45 min prior to smoke exposure.
At the end of the respective time period, animals were sacrificed; BAL was performed followed by lung resection. […] Lung volume was measured by water displacement. […]
This Lm value was used to calculate the ISA (which represent the gas exchange surface), necessary for evaluating the degree of emphysema, from the equation 4V/Lm, where V is the postfixation lung volume. For the determination of the Lm for each pair of lungs, 40 histological fields were evaluated both vertically and horizontally.
Statistical significance of differences between samples was calculated using ANOVA, followed by Bonferroni comparison test. […]

smoke exposed mice = assay: Acute cigarette smoke exposure, i.t. uridine, BAL fluid analysis; format: in vivo, Male C57BL/6 mice
Method: Male C57BL/6 mice were exposed to whole smoke of five cigarettes (commercial Virginia filter cigarettes: 12 mg of tar and 0.9 mg of nicotine) or room air for 20 min on three consecutive days in especially designed macrolon cages (Tecniplast, Buguggiate, Italy), as previously described (Cavarra E et al., Human SLPI inactivation after cigarette smoke exposure in a new in vivo model of pulmonary oxidative stress, Am J Physiol Lung Cell Mol Physiol. 2001 August; 281(2):L412-7, Cicko S et al., Purinergic receptor inhibition prevents the development of smoke-induced lung injury and emphysema, J Immunol. 2010 Jul. 1; 185(1):688-97). The smoke was produced by the burning of a cigarette and was introduced into the chamber with the airflow generated by a mechanical ventilator (7025 Rodent Ventilator, Ugo Basile, Biological Research Instruments, Comerio, Italy), at a rate of 250 ml/min. A second mechanical ventilator was used to provide room air for dilution (1:8) of the smoke-stream.
In some experiments, intratracheal treatment (i.t.) was performed prior to each smoke exposure: animals were anaesthetized by intraperitoneal injection of Ketamin/Xylazin and received an i.t. injection of uridine in a total volume of 80 μl (1 mM or 10 mM) or PBS which was used as vehicle. One hour after the last smoke challenge, mice were sacrificed and bronchoalveolar lavage (BAL) was performed.
BAL fluid was collected by cannulating the trachea under deep pentobarbital anesthesia and washing the lung three times with 1 ml PBS containing 0.1 mM EDTA, as previously described (Idzko M et al., Extracellular ATP triggers and maintains asthmatic airway inflammation by activating dendritic cells, Nat Med. 2007 Aug.; 13(8):913-9, Cicko S et al., Purinergic receptor inhibition prevents the development of smoke-induced lung injury and emphysema, J Immunol. 2010 Jul. 1; 185(1):688-97). Total cell numbers were counted and differential cell counts were performed on cytospin preparations after staining with Diff-Quick (Medion Diagnostics, Dudingen, Switzerland). Differential cell counts were made on >200 cells using standard morphological criteria and FACS-analysis.
After counting and washing, BAL cells were stained for 30 min with anti-MHC class II (macrophages/DC), anti-7/4 (Caltag) FITC (neutrophiles; Abd-Serotec, Düsseldorf, Germany), anti-CD3 and anti-CD19 cy-chrome (lymphocytes), and anti-CD 11c APC macrophages/DCs (eBioscience, San Diego, Calif.) in PBS containing 0.5% BSA and 0.01% sodium azide. Differential cell counts were analyzed by flow cytometry, as described previously (Idzko M et al., Extracellular ATP triggers and maintains asthmatic airway inflammation by activating dendritic cells, Nat Med. 2007 Aug.; 13(8):913-9 and Cicko S et al., Purinergic receptor inhibition prevents the development of smoke-induced lung injury and emphysema, J Immunol. 2010 Jul. 1; 185(1):688-97).
To measure ATP concentrations in BALF in mice, fresh BALF supernatants were used, according to manufacturer's instructions (ATPlite Assay, PerkinElmer, Wellesley Mass.), but without the cell lysis step to avoid any contaminating intracellular ATP, as described previously (Idzko M et al., Extracellular ATP triggers and maintains asthmatic airway inflammation by activating dendritic cells, Nat Med. 2007 Aug.; 13(8):913-9 Cicko S et al., Purinergic receptor inhibition prevents the development of smoke-induced lung injury and emphysema, J Immunol. 2010 Jul. 1; 185(1):688-97)).
(§1) Cytokine concentrations in BALF were measured using commercially available ELISA kits (R&D Systems, Minneapolis, Minn.) according to the manufacturer's recommendations.
(§2) Statistical significance of differences between samples was calculated using ANOVA, followed by Bonferroni comparison test. Difference were considered significant if p<0.05.

[3] = test system: BLM-induced pulmonary fibrosis; assay: Mouse model of bleomycin (BLM) induced pulmonary fibrosis; format: in vivo, male C57/B16 mice
Method: The induction of BLM induced pulmonary fibrosis was performed as previously described (Gasse P, Mary C, Guenon I, Noulin N, Charron S, Schnyder-Candrian S, Schnyder B, Akira S, Quesniaux V F, Lagente V, et al. II-1r1/myd88 signaling and the inflammasome are essential in pulmonary inflammation and fibrosis in mice. J Clin Invest 2007; 117(12):3786-3799). Then, male C57/B16 animals were treated with the uridine p.o. (200 μl 10 mM) or vehicle 14 days after BLM-instillation for 3 days a week. At day 30 animals were examined for the typical features of BLM-induced lung injury. Therefore BALF was collected and differential cell count was analyzed as described above.
as §1
The amount of lung collagen was measured in the lung tissue using the Sircol-assay according to the manufacturer's recommendations (Biocolor, Life-Science, UK).
as §2

[4] = test system: mitochondrial toxicity caused by highly active antiretroviral therapy (HAART); settings: cited from earlier work
[5] = test system: asthmatic airway inflammation; settings: OVA-alum model and HDM model in mice, local administration; cited from earlier work
[6] = BALF, uridine i.t. 1 mM or 10 mM
[7] = BALF, uridine p.o. 200 μl 10 mM, day 30
[8] = uridine p.o. 200 μl 10 mM, day 30

## O=c1[nH]c(=S)ccn1[C@@H]1O[C@H](CO)[C@@H](O)[C@H]1O [4-thiouridine]
[1]
  anti-inflammatory effects: anti-inflammatory effects similar to those of uridine

## O=c1ccn([C@@H]2O[C@H](CO)[C@@H](O)[C@H]2O)c(=O)[nH]1 [uridine]
[2]
  internal surface area of the lung: higher
  mean linear intercept: significantly lower
Smoke exposed mice; [6]
  level of IFN-γ: dose dependently reduced
  level of IL-1β: dose dependently reduced
  level of IL-6: dose dependently reduced
  level of KC: dose dependently reduced
  level of MIP-2: dose dependently reduced
  number of macrophages: dose dependently reduced
  number of neutrophils: dose dependently reduced
Smoke exposed mice; uridine i.t. 80 μl 1 mM or 10 mM vs non uridine treated mice (FIG. 1b)
  amount of extracellular ATP in BALF: significantly be reduced in a dose dependent manner
[3]; [7]
  IL-1 beta: down-regulation
  IL-6: down-regulation
  KC: down-regulation
  TNFalpha: down-regulation
[3]; uridine p.o 3×/week from day 14, day 30 (FIG. 3)
  BLM-induced pulmonary fibrosis: decreases
[3]; uridine p.o. 200 μl 10 mM 3 days a week from day 14, day 30
  amount of collagen in the lung: significantly reduce
[3]; uridine p.o. 200 μl 10 mM, after bleomycin instillation (FIG. 3)
  TIMP-1: reduced to normal levels
[3]; [8]
  lymphocytes in BALF: down-regulation
  macrophages in BALF: down-regulation
  neutrophils in BALF: down-regulation
[4]; human, HAART
  efficacy in reduction of mitochondrial toxicity: efficacious
[4]; in vivo
  safety: safe
[5]
  asthmatic airway inflammation: suppress
